Laboratory results reported in patent US20060069132A1, “Azolecarboxamide herbicides” (priority 2004, published 2006).

Assays:
Surinam grass = experiment: Test C pre-/postemergence herbicide test; type: in vivo, Urochloa decumbens
Procedure, shortened: (§1)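 Emerged plants at the 1- to 4-leaf stage (2–18 cm), or freshly planted seeds, received test chemicals in a non-phytotoxic solvent mixture with surfactant. Response was visually scored against controls after 12 to 14 days in the greenhouse, on a 0 (no effect) to 100 (complete control) scale.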

corn = experiment: Test C pre-/postemergence herbicide test; type: in vivo, Zea mays
Procedure, shortened: as §1

velvetleaf [1] = experiment: Test C pre-/postemergence herbicide test; type: in vivo, Abutilon theophrasti
Procedure, shortened: as §1

large crabgrass = experiment: Test A pre-/postemergence herbicide test; type: in vivo, Digitaria sanguinalis
Procedure, shortened: (§2)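 Both application timings were run together: directed soil spray over freshly planted seeds in sandy loam, and runoff spray onto 2–10 cm seedlings. Evaluation after ~10 days in greenhouse used a 0–100 visual scale versus untreated controls.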

velvetleaf [2] = experiment: Test B pre-/postemergence herbicide test; type: in vivo, Abutilon theophrasti
Procedure, shortened: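 Visual rating, 0 (no effect) to 100 (complete control), versus untreated controls after 13–15 d in greenhouse. Pre- and postemergence applications (postemergence plants 2–18 cm, 1–4 leaves); flooded paddy arm at 2-leaf stage. Compounds in non-phytotoxic solvent plus surfactant.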

barnyardgrass = experiment: Test A pre-/postemergence herbicide test; type: in vivo, Echinochloa crus-galli
Procedure, shortened: as §2

kochia = experiment: Test C pre-/postemergence herbicide test; type: in vivo, Kochia scoparia
Procedure, shortened: as §1

morningglory = experiment: Test C pre-/postemergence herbicide test; type: in vivo, Ipomoea coccinea; set-up: key to Plant response rating, Morningglory: 0 = no effect, 100 = complete control
Procedure, shortened: as §1

[3] = 31 g ai/ha, preemergence, scale 0 to 100
[4] = postemergence, 125 g ai/ha, scale 0 to 100
[5] = postemergence, 31 g ai/ha, scale 0 to 100
[6] = postemergence, 62 g ai/ha, scale 0 to 100
[7] = 125 g ai/ha, scale 0-100, preemergence
[8] = Postemergence, 125 g ai/ha, scale 0 to 100, 0 no effect, 100 complete control
[9] = Postemergence, 500 g ai/ha, 0 to 100 scale, 0 no effect, 100 complete control
[10] = Postemergence, 2000 g ai/ha, 0 to 100 scale, 0 no effect, 100 complete control
[11] = Preemergence, 500 g ai/ha, visual rating, 0 to 100 scale (0 no effect, 100 complete control)
[12] = Preemergence, 2000 g ai/ha, 0 to 100 scale, 0 no effect, 100 complete control
[13] = Postemergence, 500 g ai/ha, visual rating after 13 to 15 days, scale 0 (no effect) to 100 (complete control)
[14] = Preemergence, 500 g ai/ha, scale 0 to 100
[15] = preemergence, 125 g ai/ha, 0 to 100 scale, 0 is no effect, 100 is complete control
[16] = 62 g ai/ha, preemergence, scale 0 to 100
[17] = 125 g ai/ha, scale 0 (no effect) to 100 (complete control), visual, 12 to 14 days, preemergence
[18] = 250 g ai/ha, scale 0-100, preemergence
[19] = 500 g ai/ha, scale 0 to 100 (0 no effect, 100 complete control), visual, 12 to 14 days, preemergence
[20] = Preemergence, 2000 g ai/ha, visual rating, 0 to 100 scale (0 no effect, 100 complete control)
[21] = preemergence, 500 g ai/ha, visual injury, 0 to 100 scale (0 no effect, 100 complete control)
[22] = 250 g ai/ha, scale 0 to 100 (0 no effect, 100 complete control), visual, 12 to 14 days, preemergence
[23] = Postemergence, 500 g ai/ha, scale 0 to 100
[24] = Postemergence, 250 g ai/ha, scale 0 to 100, 0 no effect, 100 complete control
[25] = Preemergence, 500 g ai/ha, scale 0 to 100, 0 no effect, 100 complete control

C=Cn1nc(C(C)(C)C)cc1C(=O)Nc1cccc(C(=O)NCC)c1 [Compound 33]
85: Plant response rating, Crabgrass, Large (large crabgrass; [10])
95: Crabgrass, Large plant response rating (large crabgrass; [12])
75: Plant response rating, Barnyardgrass (barnyardgrass; [9])
20: Plant response rating, Surinam Grass (Surinam grass; [3]) | Plant response rating (0 = no effect, 100 = complete control), Surinam Grass (Surinam grass; 62 g ai/ha, preemergence) | Plant response rating, Morningglory (morningglory; [5]) | Plant response rating, Morningglory (morningglory; [6])
80: Velvetleaf plant response rating (velvetleaf [2]; [14]) | Barnyardgrass plant response rating (barnyardgrass; [12]) | Plant response rating, Kochia (kochia; [3])
30: Plant response rating, Morningglory (morningglory; [4])
65: Plant response rating, Crabgrass, Large (large crabgrass; [9])
60: Plant response rating, Velvetleaf (velvetleaf [1]; [5]) | Plant response rating, Velvetleaf (velvetleaf [2]; [13]) | Plant response rating, Kochia (kochia; [5])
90: Plant response rating, Velvetleaf (velvetleaf [1]; [6]) | Crabgrass, Large plant response rating (large crabgrass; [11]) | Plant response rating, Barnyardgrass (barnyardgrass; [10]) | Plant response rating, Kochia (kochia; [8]) | Plant response rating, Kochia (kochia; [6])
55: Barnyardgrass plant response rating (barnyardgrass; [11])
0: Plant response rating, Corn (corn; [3]) | Plant response rating (0 = no effect, 100 = complete control), Corn (corn; 62 g ai/ha, preemergence) | Plant response rating, Corn (corn; [7]) | Plant response rating, Velvetleaf (velvetleaf [1]; [3]) | Plant response rating, Morningglory (morningglory; [3]) | Plant response rating (0 = no effect, 100 = complete control), Morningglory (morningglory; 62 g ai/ha, preemergence)
50: Plant response rating, Surinam Grass (Surinam grass; [4]) | Plant response rating, Surinam Grass (Surinam grass; [5]) | Plant response rating, Surinam Grass (Surinam grass; [6])
100: Plant response rating (0 = no effect, 100 = complete control), Kochia (kochia; 62 g ai/ha, preemergence) | Plant response rating, Kochia (kochia; [7])
40: Plant response rating, Corn (corn; [8]) | Plant response rating, Corn (corn; [5]) | Plant response rating, Corn (corn; [6]) | Plant response rating, Velvetleaf (velvetleaf [2]; [15])

CCNC(=O)c1cccc(NC(=O)c2sc(C(C)(C)C)nc2CC)n1 [Compound 213]
20: Plant response rating, Surinam Grass (Surinam grass; [18]) | Crabgrass, Large plant response rating (large crabgrass; [9])
30: Plant response rating, Corn (corn; [18]) | Plant response rating, Crabgrass, Large (large crabgrass; [10])
70: Barnyardgrass plant response rating (barnyardgrass; [20])
60: Plant response rating, Surinam Grass (Surinam grass; [19]) | Velvetleaf plant response rating (velvetleaf [2]; postemergence, 500 g ai/ha, visual rating, scale 0 (no effect) to 100 (complete control))
25: Barnyardgrass plant response rating (barnyardgrass; [9])
100: Plant response rating, Kochia (kochia; [18]) | Plant response rating, Kochia (kochia; [19])
45: Plant response rating, Barnyardgrass (barnyardgrass; [10])
40: Plant response rating, Corn (corn; [19]) | Barnyardgrass plant response rating (barnyardgrass; [21])
80: Plant response rating, Velvetleaf (velvetleaf [2]; 500 g ai/ha, visual rating, 0 = no effect, 100 = complete control, preemergence)
55: Crabgrass, Large plant response rating (large crabgrass; [21])
85: Plant response rating, Kochia (kochia; [17])
95: Crabgrass, Large plant response rating (large crabgrass; [20])
0: Plant response rating, Surinam Grass (Surinam grass; [16]) | Plant response rating, Surinam Grass (Surinam grass; [17]) | Plant response rating, Corn (corn; [16]) | Plant response rating, Corn (corn; [17]) | Plant response rating, Velvetleaf (velvetleaf [1]; [16]) | Plant response rating, Velvetleaf (velvetleaf [1]; [17]) | Plant response rating, Velvetleaf (velvetleaf [1]; [18]) | Plant response rating, Velvetleaf (velvetleaf [1]; [19]) | Velvetleaf plant response rating (0 to 100 scale) (velvetleaf [2]; 125 g ai/ha, 0 = no effect, 100 = complete control, preemergence) | Velvetleaf plant response rating (velvetleaf [2]; postemergence, 125 g ai/ha, visual rating, scale 0 (no effect) to 100 (complete control)) | Plant response rating, Morningglory (morningglory; [16]) | Plant response rating, Morningglory (morningglory; [17]) | Plant response rating, Morningglory (morningglory; [18]) | Plant response rating, Morningglory (morningglory; [19])

C=CCNC(=O)c1cccc(NC(=O)c2cc(C(C)(C)C)nn2CC)c1 [Compound 46]
60: Plant response rating, Surinam Grass (Surinam grass; [22]) | Plant response rating, Morningglory (morningglory; [24]) | Plant response rating, Morningglory (morningglory; [6])
10: Plant response rating (0 = no effect, 100 = complete control), Surinam Grass (Surinam grass; 62 g ai/ha, preemergence) | Plant response rating, Corn (corn; [22]) | Corn plant response rating (corn; [25])
65: Crabgrass, Large plant response rating (large crabgrass; [11])
0: Plant response rating (0 = no effect, 100 = complete control), Corn (corn; 62 g ai/ha, preemergence) | Plant response rating, Corn (corn; [17]) | Plant response rating (0 = no effect, 100 = complete control), Kochia (kochia; 62 g ai/ha, preemergence) | Plant response rating (0 = no effect, 100 = complete control), Morningglory (morningglory; 62 g ai/ha, preemergence) | Plant response rating, Morningglory (morningglory; [17])
50: Surinam Grass plant response rating (Surinam grass; [23]) | Plant response rating, Surinam Grass (Surinam grass; [24]) | Plant response rating, Velvetleaf (velvetleaf [1]; [6]) | Plant response rating, Velvetleaf (velvetleaf [2]; [15])
75: Plant response rating, Crabgrass, Large (large crabgrass; [9])
80: Surinam Grass plant response rating (Surinam grass; [25]) | Corn plant response rating (corn; [23]) | Plant response rating, Corn (corn; [8]) | Plant response rating, Corn (corn; [24]) | Plant response rating, Corn (corn; [6]) | Velvetleaf plant response rating (velvetleaf [1]; [23]) | Plant response rating, Velvetleaf (velvetleaf [1]; [24]) | Plant response rating, Velvetleaf (velvetleaf [2]; [13]) | Morningglory plant response rating (morningglory; [23])
100: Plant response rating, Velvetleaf (velvetleaf [1]; [17]) | Plant response rating, Velvetleaf (velvetleaf [1]; [22]) | Velvetleaf plant response rating (velvetleaf [1]; [25]) | Velvetleaf plant response rating (velvetleaf [2]; [14]) | Plant response rating, Barnyardgrass (barnyardgrass; [9]) | Plant response rating, Barnyardgrass (barnyardgrass; [10]) | Barnyardgrass plant response rating (barnyardgrass; [12]) | Plant response rating, Kochia (kochia; [22]) | Kochia plant response rating (kochia; [23]) | Plant response rating, Kochia (kochia; [24]) | Kochia plant response rating (kochia; [25])
30: Plant response rating, Surinam Grass (Surinam grass; [17])
40: Plant response rating, Surinam Grass (Surinam grass; [6])
90: Plant response rating (0 = no effect, 100 = complete control), Velvetleaf (velvetleaf [1]; 62 g ai/ha, preemergence) | Plant response rating, Crabgrass, Large (large crabgrass; [10]) | Crabgrass, Large plant response rating (large crabgrass; [12]) | Barnyardgrass plant response rating (barnyardgrass; [11]) | Plant response rating, Kochia (kochia; [17]) | Plant response rating, Kochia (kochia; [6]) | Plant response rating, Morningglory (morningglory; [22]) | Morningglory plant response rating (morningglory; [25])
